# Assay results reported in patent publication US10696672B2 (Pliant Therapeutics, Inc., priority 2016, dated 2020).
# Biological target: recombinant human integrin αvβ6 (Homo sapiens (Human), UniProt P06756+P18564)
# Experiment: Solid phase integrin αvβ6 binding assay
# Conditions: plate-coated integrin; recombinant TGFβ1 LAP 0.67 ug/ml as ligand; 2 hours at 25° C.; read-out: αvβ6 Inhibition IC50 (nM) - range
# Procedure: Example B1—Solid Phase Integrin αvβ6 Binding Assay
# Microplates were coated with recombinant human integrin αvβ6 (2 ug/ml) in PBS (100 ul/well 25° C., overnight). The coating solution was removed, washed with wash buffer (0.05% Tween 20; 0.5 mM MnCl2; in 1×TBS). Plate was blocked with 200 ul/well of Block Buffer (1% BSA; 5% sucrose; 0.5 mM MnCl2; in 1×TBS) at 37° C. for 2 h. Dilutions of testing compounds and recombinant TGFβ1 LAP (0.67 ug/ml) in binding buffer (0.05% BSA; 2.5% sucrose; 0.5 mM MnCl2; in 1×TBS) were added. The plate was incubated for 2 hours at 25° C., washed, and incubated for 1 hour with Biotin-Anti-hLAP. Bound antibody was detected by peroxidase-conjugated streptavidin. The IC50 values for testing compounds were calculated by a four-parameter logistic regression.
# The compounds tested were compound samples prepared according to procedures described in the Synthetic Examples section, with the stereochemical purity as indicated in the Examples indicated.
# recombinant human integrin αvβ6, sequence (P06756 31-992): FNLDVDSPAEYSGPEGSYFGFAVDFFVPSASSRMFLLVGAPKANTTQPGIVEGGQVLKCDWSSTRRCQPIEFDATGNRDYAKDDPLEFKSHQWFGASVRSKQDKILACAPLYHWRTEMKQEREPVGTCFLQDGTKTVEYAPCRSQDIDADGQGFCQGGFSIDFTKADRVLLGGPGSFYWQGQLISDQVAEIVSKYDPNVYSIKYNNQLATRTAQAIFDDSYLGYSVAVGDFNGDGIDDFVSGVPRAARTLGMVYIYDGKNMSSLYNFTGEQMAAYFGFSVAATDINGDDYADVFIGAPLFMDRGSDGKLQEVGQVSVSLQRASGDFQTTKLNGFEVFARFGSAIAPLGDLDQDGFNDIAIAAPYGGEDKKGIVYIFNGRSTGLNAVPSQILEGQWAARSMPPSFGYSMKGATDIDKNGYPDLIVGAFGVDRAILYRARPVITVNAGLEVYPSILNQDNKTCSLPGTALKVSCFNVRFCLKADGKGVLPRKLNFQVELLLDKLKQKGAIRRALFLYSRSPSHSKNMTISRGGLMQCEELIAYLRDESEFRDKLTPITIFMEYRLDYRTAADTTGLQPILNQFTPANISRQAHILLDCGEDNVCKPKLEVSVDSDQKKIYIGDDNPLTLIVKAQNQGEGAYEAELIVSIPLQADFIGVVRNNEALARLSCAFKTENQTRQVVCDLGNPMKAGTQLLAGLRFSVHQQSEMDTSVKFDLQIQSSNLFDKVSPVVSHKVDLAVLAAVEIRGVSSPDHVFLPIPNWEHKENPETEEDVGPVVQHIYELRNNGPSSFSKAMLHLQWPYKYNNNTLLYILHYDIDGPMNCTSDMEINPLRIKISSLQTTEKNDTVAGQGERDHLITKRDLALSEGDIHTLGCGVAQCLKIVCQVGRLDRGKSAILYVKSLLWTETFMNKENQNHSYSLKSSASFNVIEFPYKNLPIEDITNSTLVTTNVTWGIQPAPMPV
# recombinant human integrin αvβ6, sequence (P18564 22-707): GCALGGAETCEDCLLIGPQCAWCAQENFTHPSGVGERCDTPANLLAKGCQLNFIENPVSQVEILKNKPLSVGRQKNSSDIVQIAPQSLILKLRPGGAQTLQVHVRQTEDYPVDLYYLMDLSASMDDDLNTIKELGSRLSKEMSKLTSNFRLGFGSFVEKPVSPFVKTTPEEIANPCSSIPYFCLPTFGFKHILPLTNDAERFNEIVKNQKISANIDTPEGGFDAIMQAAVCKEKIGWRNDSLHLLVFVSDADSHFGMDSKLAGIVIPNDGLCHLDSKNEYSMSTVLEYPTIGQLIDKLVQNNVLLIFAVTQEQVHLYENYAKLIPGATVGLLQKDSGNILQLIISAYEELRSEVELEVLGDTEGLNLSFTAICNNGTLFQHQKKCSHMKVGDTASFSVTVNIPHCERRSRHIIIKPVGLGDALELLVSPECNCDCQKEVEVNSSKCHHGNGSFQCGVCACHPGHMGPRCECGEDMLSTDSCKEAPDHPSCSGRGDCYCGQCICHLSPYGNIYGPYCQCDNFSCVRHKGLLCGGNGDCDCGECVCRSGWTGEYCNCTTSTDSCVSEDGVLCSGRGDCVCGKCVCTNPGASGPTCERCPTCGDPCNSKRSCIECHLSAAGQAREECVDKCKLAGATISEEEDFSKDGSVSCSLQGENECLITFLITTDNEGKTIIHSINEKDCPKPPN
row,IC50 [nM],Structure (SMILES)
1,250 to 1000,O=C(O)[C@H](CCN1CC[C@@H](OCCc2ccc3c(n2)NCCC3)C1)NC(=O)[C@@H]1CCCN1c1ccccc1 [Compound 133]
2,< 50,O=C(O)[C@H](CCN1CC[C@@H](CCc2ccc3c(n2)NCCC3)C1)NC(=O)[C@@H]1CCCN1Cc1cccnc1 [Compound 99]
3,250 to 1000,O=C(O)[C@H](CCN1CC(CCc2ccc3c(n2)NCCC3)C1)NC(=O)[C@@H]1CCCN1c1ccccc1 [Compound 129]
4,50 to 250,O=C(N[C@@H](CCN1CC[C@@H](CCc2ccc3c(n2)NCCC3)C1)C(=O)O)c1cccc(-c2cscn2)c1 [Compound 65]
5,< 50,O=C(N[C@@H](CCN1CC[C@@H](CCc2ccc3c(n2)NCCC3)C1)C(=O)O)c1cccs1 [Compound 51]
6,50 to 250,O=C(N[C@@H](CCN1CC[C@](F)(CCc2ccc3c(n2)NCCC3)C1)C(=O)O)c1c(Cl)cccc1Cl [Compound 64]
7,< 50,CC(C)(C)C(=O)N1CCC[C@@H](C(=O)N[C@@H](CCN2CC[C@@H](CCc3ccc4c(n3)NCCC4)C2)C(=O)O)C1 [Compound 79]
8,< 50,CC(C)(O)CN1CCC[C@H]1C(=O)N[C@@H](CCN1CC[C@@H](CCc2ccc3c(n2)NCCC3)C1)C(=O)O [Compound 77]
9,< 50,CC(C)n1cc2c(C(=O)N[C@@H](CCN3CC[C@@H](CCc4ccc5c(n4)NCCC5)C3)C(=O)O)cccc2n1 [Compound 71]
10,< 50,O=C(Cc1ccccc1Cl)N[C@@H](CCN1CC[C@@H](CCc2ccc3c(n2)NCCC3)C1)C(=O)O [Compound 75]
11,50 to 250,"CC1(C(=O)N[C@@H](CCN2CC[C@@H](CCc3ccc4c(n3)NCCC4)C2)C(=O)O)CCOCC1 [Compound 22a, (S)-2-(4-methyltetrahydro-2H-pyran-4-carboxamido)-4-((R)-3-(2-(5,6,7,8-tetrahydro-1,8-naphthyridin-2-yl)ethyl)pyrrolidin-1-yl)butanoic acid]"
12,< 50,O=C(O)[C@H](CCN1CC[C@@H](CCc2ccc3c(n2)NCCC3)C1)NC(=O)[C@@H]1COCCN1Cc1ccccc1 [Compound 89]
13,< 50,"O=C(N[C@@H](CCN1CC[C@@H](CCc2ccc3c(n2)NCCC3)C1)C(=O)O)c1ccc2c(cnn2C(F)F)c1 [Compound 30a, (S)-2-(1-(difluoromethyl)-1H-indazole-5-carboxamido)-4-((R)-3-(2-(5,6,7,8-tetrahydro-1,8-naphthyridin-2-yl)ethyl)pyrrolidin-1-yl)butanoic acid]"
14,< 50,O=C(N[C@@H](CCN1CC[C@@H](CCc2ccc3c(n2)NCCC3)C1)C(=O)O)[C@@H]1CCN(c2ccccn2)C1 [Compound 47]
15,250 to 1000,CC(C)(C(=O)N[C@@H](CCN1CC(OCCc2ccc3c(n2)NCCC3)C1)C(=O)O)c1cccnc1 [Compound 128]
16,< 50,O=C(N[C@@H](CCN1CC[C@@H](CCc2ccc3c(n2)NCCC3)C1)C(=O)O)c1cccc(-c2cncs2)c1 [Compound 66]
17,> 1000,"Cc1cc(C)n(-c2cccc(C(=O)N[C@@H](CCN3CCC(CCc4ccc5c(n4)NCCC5)CC3)C(=O)O)c2)n1 [Compound 12a, (S)-2-(3-(3,5-dimethyl-1H-pyrazol-1-yl)benzamido)-4-(4-(2-(5,6,7,8-tetrahydro-1,8-naphthyridin-2-yl)ethyl)piperidin-1-yl)butanoic acid]"
18,< 50,Cn1nccc1-c1cccc(C(=O)N[C@@H](CCN2CC[C@@H](CCc3ccc4c(n3)NCCC4)C2)C(=O)O)c1 [Compound 57]
19,< 50,"O=C(N[C@@H](CCN1CC[C@@H](CCc2ccc3c(n2)NCCC3)C1)C(=O)O)c1ccc(C(F)(F)F)cc1 [Compound 10a, (S)-4-((R)-3-(2-(5,6,7,8-tetrahydro-1,8-naphthyridin-2-yl)ethyl)pyrrolidin-1-yl)-2-(4-(trifluoromethyl)benzamido)butanoic acid]"
20,> 1000,O=C(N[C@H](CCN1CC[C@H](CCc2ccc3c(n2)NCCC3)C1)C(=O)O)c1c(Cl)cccc1Cl [Compound 147]
21,50 to 250,O=C(O)[C@H](CCN1CC[C@@H](CCc2ccc3c(n2)NCCC3)C1)NC(=O)[C@@H]1CCCCN1Cc1ccccc1 [Compound 93]
22,> 1000,CC(C)(O)CN1CCC[C@H]1C(=O)N[C@@H](CCN1CC[C@@H](OCCc2ccc3c(n2)NCCC3)C1)C(=O)O [Compound 142]
23,> 1000,CC(=O)N1CCN(CC[C@H](NC(=O)c2ccccc2)C(=O)O)C[C@@H]1CCc1ccc2c(n1)NCCC2 [Compound 116]
24,50 to 250,O=C(N[C@@H](CCN1CC(OCCc2ccc3c(n2)NCCC3)C1)C(=O)O)C1CCOCC1 [Compound 124]

row,IC50 [nM],Structure (SMILES)
1,< 50,"O=C(N[C@@H](CCN1CC[C@@H](CCc2ccc3c(n2)NCCC3)C1)C(=O)O)c1ccccc1C(F)(F)F [Compound 8a, (S)-4-((R)-3-(2-(5,6,7,8-tetrahydro-1,8-naphthyridin-2-yl)ethyl)pyrrolidin-1-yl)-2-(2-(trifluoromethyl)benzamido)butanoic acid]"
2,< 50,"O=C(N[C@H](CCN1CC[C@@H](CCc2ccc3c(n2)NCCC3)C1)C(=O)O)C1CCC(F)(F)CC1 [Compound 21c, (R)-2-(4,4-difluorocyclohexane-1-carboxamido)-4-((R)-3-(2-(5,6,7,8-tetrahydro-1,8-naphthyridin-2-yl)ethyl)pyrrolidin-1-yl)butanoic acid]"
3,50 to 250,O=C(N[C@@H](CCN1CCC[C@@](F)(CCc2ccc3c(n2)NCCC3)C1)C(=O)O)c1ccccc1 [Compound 52]
4,250 to 1000,CC(C)(O)CC1NCCC1C(=O)N[C@@H](CCN1CC(OCCc2ccc3c(n2)NCCC3)C1)C(=O)O (some centres unmarked) [Compound 134]
5,< 50,O=C(N[C@@H](CCN1CC[C@@H](CCc2ccc3c(n2)NCCC3)C1)C(=O)O)[C@H]1CCN(c2ccccn2)C1 [Compound 46]
6,< 50,CC(C)(C)c1cccc(C(=O)N[C@@H](CCN2CC[C@@H](CCc3ccc4c(n3)NCCC4)C2)C(=O)O)c1 [Compound 68]
7,< 50,"O=C(N[C@@H](CCN1CC[C@@H](CCc2ccc3c(n2)NCCC3)C1)C(=O)O)c1cccc(N2CCOCC2)c1 [Compound 15a, (S)-2-(3-morpholinobenzamido)-4-((R)-3-(2-(5,6,7,8-tetrahydro-1,8-naphthyridin-2-yl)ethyl)pyrrolidin-1-yl)butanoic acid]"
8,< 50,O=C(NC(CCN1CC[C@@H](CCc2ccc3c(n2)NCCC3)C1)C(=O)O)c1ccccc1 (some centres unmarked) [3a and 3c]
9,250 to 1000,Cc1cc(C)n(-c2cccc(C(=O)N[C@@H](CCN3CC(CCc4ccc5c(n4)NCCC5)CC(F)(F)C3)C(=O)O)c2)n1 (some centres unmarked) [Compound 42]
10,250 to 1000,Cc1nn(C)cc1-c1nn(C)c2c(C(=O)N[C@@H](CCN3CC[C@@H](CCc4ccc5c(n4)NCCC5)C3)C(=O)O)cccc12 [Compound 98]
11,< 50,O=C(N[C@H](CCN1CC[C@@H](CCc2ccc3c(n2)NCCC3)C1)C(=O)O)c1cccc(-c2ncco2)c1 [Compound 88]
12,< 50,"O=C(N[C@@H](CCN1CC[C@@H](CCc2ccc3c(n2)NCCC3)C1)C(=O)O)c1cccc2cn[nH]c12 [Compound 26a, (S)-2-(1H-indazole-7-carboxamido)-4-((R)-3-(2-(5,6,7,8-tetrahydro-1,8-naphthyridin-2-yl)ethyl)pyrrolidin-1-yl)butanoic acid]"
13,< 50,CC(C)(C(=O)N[C@@H](CCN1CC[C@@H](CCc2ccc3c(n2)NCCC3)C1)C(=O)O)c1cccnc1 [Compound 37]
14,< 50,O=C(N[C@@H](CCN1CC[C@@H](CCc2ccc3c(n2)NCCC3)C1)C(=O)O)c1cccc2[nH]ncc12 [Compound 35]
15,< 50,O=C(NC(CCN1CC[C@@H](CCc2ccc3c(n2)NCCC3)C1)C(=O)O)c1ccc2ocnc2c1 (some centres unmarked) [31a and 31c]
16,< 50,O=C(N[C@@H](CCN1CC[C@@H](CCc2ccc3c(n2)NCCC3)C1)C(=O)O)c1ccncn1 [Compound 70]
17,> 1000,CC(C)(C(=O)N[C@@H](CCN1CC(CCc2ccc3c(n2)NCCC3)C1)C(=O)O)c1ccccc1 [Compound 136]
18,250 to 1000,O=C(N[C@@H](CCN1CC(CCc2ccc3c(n2)NCCC3)C1)C(=O)O)[C@H]1CCN(c2ccccn2)C1 [Compound 138]
19,< 50,O=C(O)[C@H](CCN1CC[C@@H](CCc2ccc3c(n2)NCCC3)C1)NC(=O)[C@@H]1CCCN1CC1CCC1 [Compound 92]
20,< 50,CC(C)Cn1cc2c(C(=O)N[C@@H](CCN3CC[C@@H](CCc4ccc5c(n4)NCCC5)C3)C(=O)O)cccc2n1 [Compound 72]
21,< 50,O=C(N[C@@H](CCN1CC[C@H](CCc2ccc3c(n2)NCCC3)C1)C(=O)O)c1c(Cl)cccc1Cl [Compound 146]
22,50 to 250,O=C(N[C@@H](CCN1CCC[C@@](F)(CCc2ccc3c(n2)NCCC3)C1)C(=O)O)C1CCC(F)(F)CC1 [Compound 107]
23,> 1000,CC(C)(Cc1ccccc1)C(=O)N[C@@H](CCN1CC(CCc2ccc3c(n2)NCCC3)C1)C(=O)O [Compound 137]
24,250 to 1000,CC(C)(C(=O)N[C@@H](CCN1CC[C@@H](OCCc2ccc3c(n2)NCCC3)C1)C(=O)O)c1cccnc1 [Compound 122]

row,Structure (SMILES),IC50 [nM]
1,O=C(N[C@@H](CCN1C2CCC1C(CCc1ccc3c(n1)NCCC3)C2)C(=O)O)c1cc(F)cc(C(F)(F)F)c1 (some centres unmarked) [Compound 141],< 50
2,"CC(C)(C)OC(=O)N[C@@H](CCN1CC[C@@H](CCc2ccc3c(n2)NCCC3)C1)C(=O)O [Compound 2a, (S)-2-((tert-butoxycarbonyl)amino)-4-((R)-3-(2-(5,6,7,8-tetrahydro-1,8-naphthyridin-2-yl)ethyl)pyrrolidin-1-yl)butanoic acid]",< 50
